Laboratory results reported in patent US20250346588A1, “IMIDAZOPYRIDINE AND OXAZOLOPYRIDINE DERIVATIVES AND ANALOGS THEREOF, METHODS OF PREPARATION THEREOF, METHODS OF HIF-1/2A PATHWAY INHIBITION, AND INDUCTION OF FERROPTOSIS” (KUDA THERAPEUTICS, INC., priority 2022, published 2025).

System: HIF-2α transcriptional activity
Assay: Hypoxia-responsive element-driven luciferase (HRE-Luc) screen
Assay type: cell-based, human
Settings: 786-0 ccRCC cells stably expressing HRE-Luc, 24 h treatment, range of IC50 values
Method: Screens for inhibitory activity of compounds described herein were performed using 786-0 ccRCC cells that stably express HRE-Luc: 5 copies of the hypoxia-responsive element (HRE) fused to the pGL3 luciferase reporter (Promega Corp, Madison WI). 786-0 cells are pVHL deficient and thus constitutively express HIF-2α independently of cellular oxygen tension. Since 786-0 cells lack HIF-1α, HRE-driven luciferase activity is primarily HIF-2α driven, and has been previously validated. Cells were maintained at log phase growth in […] (DMEM) with 10% FBS in a humidified incubator at 37° C. with 5% CO2. For screening assays, cells were seeded at a density of 4,000 cells in 50 μl of complete media/well in quadruplicate wells/point in a 96-well plate. After 24 h, 50 μl of a 2× concentration of test compound was added to each well. Compounds were diluted from a 5-10 mM stock in DMSO and final concentrations of DMSO in each well in controls and treated wells were kept constant at ≤0.6% DMSO. After 24 h treatment, luciferase activity was measured using the Steady-Glo Luciferase assay system (Promega Corp) according to the manufacturer's protocol. Cell viability was measured in quadruplicate parallel wells using resazurin as recommended by the manufacturer (R&D systems, Minneapolis, MN). Data for luciferase and resazurin were normalized to DMSO treated controls (defining 100%) and wells containing assay reagent but no cells (defining 0%) and graphed using the log inhibitor versus normalized response option in Graphpad Prism 9.3.1 software. Representative data determined using Steady-Glo luciferase and resazurin are shown in FIGS. 1A and 1B respectively, with error bars showing SD. Filled diamonds, empty squares and empty triangles indicate treatment with 3, 8 and 22 respectively with results for HRE-Luc shown in FIG. 1A.

SMILES	IC50 (Homo sapiens, 786-0, 24 h) [µM]	IC50 [µM]
COc1nccc2nc(Nc3nnc(N4CC(C)OC(C)C4)o3)[nH]c12 (stereo not shown) [Compound 70, 5-(2,6-dimethylmorpholino)-N-(4-methoxy-3H-imidazo[4,5-c]pyridin-2-yl)-1,3,4-oxadiazol-2-amine]	< 10	–
COc1nccc2[nH]c(Nc3nnc(-c4ccc5c(c4)OCO5)o3)nc12 [Compound 27, N-(4-Methoxy-1H-imidazo[4,5-c]pyridin-2-yl)-5-(benzo[d][1,3]dioxol-5-yl)-1,3,4-oxadiazol-2-amine]	< 10	–
COc1cccc2nc(Nc3nnc(C4CCC(OC)CC4)o3)[nH]c12 (single isomer, unassigned) [Compound 75-isomer-2, N-(7-methoxy-1H-benzo[d]imidazol-2-yl)-5-(4-methoxycyclohexyl)-1,3,4-oxadiazol-2-amine]	–	10 to 50
COc1nccc2[nH]c(Nc3nnc([C@H]4CC[C@@H](OC)CC4)o3)nc12 [Compound 62, N-(4-methoxy-1H-imidazo[4,5-c]pyridin-2-yl)-5-((1s,4s)-4-methoxycyclohexyl)-1,3,4-oxadiazol-2-amine]	< 10	–
COc1nccc2nc(Nc3nnc(C4CCN(C)CC4)o3)[nH]c12 [Compound 64, N-(4-methoxy-3H-imidazo[4,5-c]pyridin-2-yl)-5-(1-methylpiperidin-4-yl)-1,3,4-oxadiazol-2-amine]	< 10	–
COc1nc(C)cc2[nH]c(Nc3nnc([C@H]4CC[C@@H](OC)CC4)o3)nc12 [Compound 100, N-(4-methoxy-6-methyl-1H-imidazo[4,5-c]pyridin-2-yl)-5-((1s,4s)-4-methoxycyclohexyl)-1,3,4-oxadiazol-2-amine]	< 10	–
[2H]C([2H])([2H])Oc1ccc(-c2nnc(Nc3nc4c(OC)nccc4[nH]3)o2)cc1OC([2H])([2H])[2H] [Compound 97, 5-(3,4-Dimethoxy-d3-phenyl)-N-(4-methoxy-1H-imidazo[4,5-c]pyridin-2-yl)-1,3,4-oxadiazol-2-amine]	< 10	–
COc1ccc(-c2nnc(Nc3nc4c(OC)cccc4[nH]3)o2)cc1OC [Compound 84, 5-(3,4-dimethoxyphenyl)-N-(4-methoxy-1H-benzo [d]imidazol-2-yl)-1,3,4-oxadiazol-2-amine]	< 10	–
COc1cccc2nc(Nc3nnc(C4CCC(C(C)(C)C)CC4)o3)[nH]c12 (stereo not shown) [Compound 94, 5-(4-(tert-butyl)cyclohexyl)-N-(7-methoxy-1H-benzo[d]imidazol-2-yl)-1,3,4-oxadiazol-2-amine]	< 10	–
COc1cccc2[nH]c(Nc3nnc(N4C[C@H](C)C[C@H](C)C4)o3)nc12 [Compound 92, 5-((3R,5S)-3,5-dimethylpiperidin-1-yl)-N-(4-methoxy-1H-benzo[d]imidazol-2-yl)-1,3,4-oxadiazol-2-amine]	> 100	–
COc1cccc2nc(Nc3nnc(C4CCC(OC)CC4)o3)[nH]c12 (single isomer, unassigned) [Compound 75-isomer-1, N-(7-methoxy-1H-benzo[d]imidazol-2-yl)-5-(4-methoxycyclohexyl)-1,3,4-oxadiazol-2-amine]	< 10	–
COc1nc(C)cc2[nH]c(Nc3nnc([C@H]4CC[C@H](OC)CC4)o3)nc12 [Compound 99, N-(4-methoxy-6-methyl-1H-imidazo[4,5-c]pyridin-2-yl)-5-((1r,4r)-4-methoxycyclohexyl)-1,3,4-oxadiazol-2-amine]	–	< 10
COc1ccc(-c2cnc(Nc3nc4c(OC)nccc4[nH]3)o2)cc1OC [Compound 59, 5-(3,4-dimethoxyphenyl)-N-(4-methoxy-1H-imidazo[4,5-c]pyridin-2-yl)oxazol-2-amine]	50 to 100	–
COc1ccc(-c2nnc(Nc3nc4c(OC)nccc4[nH]3)o2)cc1OC [Compound 26, N-(4-Methoxy-1H-imidazo[4,5-c]pyridin-2-yl)-5-(3,4-dimethoxyphenyl)-1,3,4-oxadiazol-2-amine]	< 10	–
COc1cccc2nc(Nc3nnc(N4CCOCC4)o3)[nH]c12 [Compound 72, N-(7-methoxy-1H-benzo[d]imidazol-2-yl)-5-morpholino-1,3,4-oxadiazol-2-amine]	10 to 50	–
COc1cccc2[nH]c(Nc3nnc(N4CCS(=O)(=O)CC4)o3)nc12 [Compound 76, 4-(5-((4-methoxy-1H-benzo[d]imidazol-2-yl)amino)-1,3,4-oxadiazol-2-yl)thiomorpholine 1,1-dioxide]	> 100	–

Results, then the compound that gave them:

IC50 (Homo sapiens, 786-0, 24 h) [µM]	IC50 [µM]	SMILES
< 10	–	COc1nccc2[nH]c(Nc3nnc(-c4ccc(OC5CC5)cc4)o3)nc12 [Compound 41, 5-(4-Cyclopropoxyphenyl)-N-(4-methoxy-1H-imidazo[4,5-c]pyridin-2-yl)-1,3,4-oxadiazol-2-amine]
< 10	–	COc1ccc(-c2nnc(Nc3nc4c(OC)nccc4[nH]3)o2)cn1 [Compound 39, N-(4-Methoxy-1H-imidazo[4,5-c]pyridin-2-yl)-5-(6-methoxypyridin-3-yl)-1,3,4-oxadiazol-2-amine]
> 10	–	COc1ccc(-c2nnc(Nc3nc4c(OC)nccc4[nH]3)o2)cc1F [Compound 33, 5-(3-Fluoro-4-methoxyphenyl)-N-(4-methoxy-1H-imidazo[4,5-c]pyridin-2-yl)-1,3,4-oxadiazol-2-amine]
> 100	–	COc1ccc(-c2nnc(Nc3nc4c(OC)cccc4[nH]3)o2)cc1F [Compound 85, 5-(3-fluoro-4-methoxyphenyl)-N-(4-methoxy-1H-benzo[d]imidazol-2-yl)-1,3,4-oxadiazol-2-amine]
10 to 50	–	COc1nccc2[nH]c(Nc3nnc(-c4ccc(C(F)(F)F)cc4)o3)nc12 [Compound 20, N-(4-methoxy-1H-imidazo[4,5-c]pyridin-2-yl)-5-(4-(trifluoromethyl)phenyl)-1,3,4-oxadiazol-2-amine]
10 to 50	–	Fc1ccc(-c2nnc(Nc3nc4cnc(Cl)cc4[nH]3)o2)cc1 [Compound 5, N-(6-Chloro-1H-imidazo[4,5-c]pyridin-2-yl)-5-(4-fluorophenyl)-1,3,4-oxadiazol-2-amine]
50 to 100	–	COc1cccc(-c2nccc3nc(Nc4nnc(-c5ccc(F)cc5)o4)[nH]c23)c1 [Compound 19, 5-(4-Fluorophenyl)-N-(4-(3-methoxyphenyl)-3H-imidazo[4,5-c]pyridin-2-yl)-1,3,4-oxadiazol-2-amine]
< 10	–	COc1nccc2[nH]c(Nc3nnc(-c4ccc(N(C)C)cc4)o3)nc12 [Compound 28, N-(4-Methoxy-1H-imidazo[4,5-c]pyridin-2-yl)-5-(4-(dimethylamino)phenyl)-1,3,4-oxadiazol-2-amine]
–	10 to 50	COc1ccc(-c2nnc(Nc3nc4c(Cl)nccc4[nH]3)o2)cc1 [Compound 23, N-(4-chloro-1H-imidazo[4,5-c]74yridine-2-yl)-5-(4-methoxyphenyl)-1,3,4-oxadiazol-2-amine]
< 10	–	COc1nccc2[nH]c(Nc3nnc(-c4ccc(C)cc4)o3)nc12 [Compound 29, N-(4-methoxy-1H-imidazo[4,5-c]pyridin-2-yl)-5-(p-tolyl)-1,3,4-oxadiazol-2-amine]
> 100	–	COc1cccc2[nH]c(Nc3nnc(-c4ccc5occc5c4)o3)nc12 [Compound 89, 5-(benzofuran-5-yl)-N-(4-methoxy-1H-benzo[d]imidazol-2-yl)-1,3,4-oxadiazol-2-amine]
10 to 50	–	Fc1ccc(-c2nnc(Nc3nc4cnc(Cl)nc4[nH]3)o2)cc1 [Compound 14, N-(2-Chloro-9H-purin-8-yl)-5-(4-fluorophenyl)-1,3,4-oxadiazol-2-amine]
10 to 50	–	COc1nccc2[nH]c(Nc3nnc(-c4ccc(OC(F)(F)F)cc4)o3)nc12 [Compound 21, N-(4-methoxy-1H-imidazo[4,5-c]pyridin-2-yl)-5-(4-(trifluoromethoxy)phenyl)-1,3,4-oxadiazol-2-amine]
10 to 50	–	Cc1cncc2nc(Nc3nnc(-c4ccc(F)cc4)o3)[nH]c12 [Compound 7, 5-(4-Fluorophenyl)-N-(7-methyl-1H-imidazo[4,5-c]pyridin-2-yl)-1,3,4-oxadiazol-2-amine]
10 to 50	–	COc1cccc2[nH]c(Nc3nnc(-c4ccc5c(c4)CCO5)o3)nc12 [Compound 87, 5-(2,3-dihydrobenzofuran-5-yl)-N-(4-methoxy-1H-benzol[d]imidazol-2-yl)-1,3,4-oxadiazol-2-amine]
10 to 50	–	COc1ccc(-c2nnc(Nc3nc4cccc(OC)c4[nH]3)o2)cc1 [Compound 82, N-(7-methoxy-1H-benzo[d]imidazol-2-yl)-5-(4-methoxyphenyl)-1,3,4-oxadiazol-2-amine]
10 to 50	–	Fc1ccc(-c2nnc(Nc3nc4ccnc(-c5ccc6c(c5)OCO6)c4[nH]3)o2)cc1 [Compound 31, N-(4-(Benzo[d][1,3]dioxol-5-yl)-3H-imidazo[4,5-c]pyridin-2-yl)-5-(4-fluorophenyl)-1,3,4-oxadiazol-2-amine]
10 to 50	–	Fc1ccc(-c2nnc(Nc3nc4cncc(N5CCOCC5)c4[nH]3)o2)cc1 [Compound 18, 5-(4-Fluorophenyl)-N-(7-morpholino-1H-imidazo[4,5-c]pyridin-2-yl)-1,3,4-oxadiazol-2-amine]
